Test results as given in patent US20220273659A1, “HETEROCYCLIC COMPOUNDS AS KINASE INHIBITORS” (NUVATION BIO INC., priority 2019, published 2022).
Like-named read-outs stand apart in the source and are kept apart here.

Legend:
[1] = target: T1, CDK4 (Homo sapiens, UniProt P11802); experiment: In vitro kinase inhibition IC50, luminescence (ADP Glo), retinoblastoma substrate; format: biochemical; settings: read-out: CDK4/D1 IC50
T1 construct: purchased Invitrogen PR8064A
Method in brief: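 Inhibition of CDK4 was quantified by ADP Glo luminescence with retinoblastoma as substrate. Reactions held 5 nM kinase, 1 μM retinoblastoma and 25 μM ATP and ran 2H at room temperature. A Synergy Neo reader took signals 15 min and 45 min after detection reagent, and percent inhibition was fitted to a four-parameter logistic model in XLfit to obtain IC50.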

[2] = target: T2, CDK6 (Homo sapiens, UniProt Q00534); experiment: as above; format: biochemical; settings: read-out: CDK6/D1 IC50
T2 construct: purchased Invitrogen PR8422B
Method in brief: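 IC50 derived by four-parameter logistic fit of percent inhibition, read as ADP-Glo luminescence. Reactions: 5 nM CDK6, 1 μM retinoblastoma, 25 μM ATP, test compound 0.1–200 nM final, 2 h at room temperature.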

[3] = target: T3, PI3Kδ kinase (Homo sapiens, UniProt O00329); experiment: PI3Kδ kinase assay (ADP-Glo, Reaction Biology); format: biochemical
T3 construct: purchased Reaction Biology Corporation (assay service)
Method in brief: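 Kinase in Tris-HCl 40 mM pH 7.5, MgCl2 20 mM, orthovanadate 3 mM, DTT 2 mM, 0.05% CHAPS, 1% DMSO, preincubated 10 min at room temperature with compound (about 0.5 nM–100 μM). ATP started a 30-min reaction at 30 °C. ADP-Glo luminescence converted to μM ADP via standard curve; IC50 from nonlinear regression.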

[4] = target: T4, CDK2 (cyclin A) (Homo sapiens, UniProt P24941); experiment: Z'-LYTE kinase assay; format: biochemical
T4 construct: purchased Invitrogen Life Technologies (assay service)
Experimental: IC50 values of compounds against CDK2 (cyclin A) were determined by Z′-LYTE™ These screening assays were performed at Invitrogen Life Technologies (Grand Island, N.Y.) on a low volume NBS, black 384-well plate (#4514, Corning). 0.1 μL of 100×test compound in 100% DMSO (at specific solutions) was mixed with 2.4 μL of Kinase Buffer (50 mM HEPES pH 7.5, 0.01% BRIJ-35, 10 mM MgCl2, 1 mM EGTA), 5 μL of 2× Kinase (1.22-10.3 ng CDK2/cyclin A)/Peptide (2 μM Ser/Thr 12), and 2.5 μL of 4×ATP solution (31 μM). The plates were shaken for 30 seconds, and incubated for 60 minutes at room temperature. Development Reagent Solution (5 μL of 1:1024 dilution) was added to the plates followed with another 30-second plate shake and the plates were further incubated at room temperature for one hour. The plates were read on fluorescence plate reader with Dual emission at 445 nm and 520 nm.
The following equations were used for Z′-LYTE™ Screening Assay Data Analysis. Percent inhibition (100-% activity) was fitted to the “four-parameter logistic model” in XLfit for determination of IC50 values.

[5] = test system: DU4475 breast carcinoma cells; experiment: Cancer cell proliferation assay, single agent (cell viability); format: cell-based; settings: Homo sapiens, DU-4475; Table 4; Rb negative; treatment 144 Hr with medium change at 72 Hr; Cell Titer-Glo or resazurin
Method in brief: (§1)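 Viability read by resazurin or CellTiter-Glo after 24 h treatment (BT-549) or 144 h with a 72 h medium change (MCF-7, DU4475). Compounds tested at 7–9 concentrations, e.g. 1.1 nM–10 μM, added the day after seeding; IC50 by nonlinear sigmoidal regression.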

[6] = test system: MCF-7 breast adenocarcinoma cells; experiment: as above; format: cell-based; settings: Homo sapiens, MCF7, Table 4; Rb positive; treatment 144 Hr with medium change at 72 Hr; Cell Titer-Glo or resazurin
Method in brief: as §1

[7] = target: T5, CDK1 (cyclin B) (Homo sapiens, UniProt P06493); experiment: Z'-LYTE kinase assay; format: biochemical
T5 construct: purchased Invitrogen Life Technologies (assay service)
Experimental: The plates were shaken for 30 seconds, and incubated for 60 minutes at room temperature. […] The plates were read on fluorescence plate reader with Dual emission at 445 nm and 520 nm.
The following equations were used for Z′-LYTE™ Screening Assay Data Analysis.

T1 sequence (P11802 whole entry): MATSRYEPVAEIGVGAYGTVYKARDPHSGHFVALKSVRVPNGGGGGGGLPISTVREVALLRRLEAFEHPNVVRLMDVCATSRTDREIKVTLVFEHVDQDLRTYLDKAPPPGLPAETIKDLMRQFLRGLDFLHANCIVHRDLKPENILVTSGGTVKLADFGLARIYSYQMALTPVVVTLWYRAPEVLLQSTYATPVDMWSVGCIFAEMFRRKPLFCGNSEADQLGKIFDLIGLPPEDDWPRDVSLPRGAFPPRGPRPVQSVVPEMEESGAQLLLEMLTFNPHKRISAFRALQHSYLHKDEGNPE
T1 sequence (P24385 whole entry partner): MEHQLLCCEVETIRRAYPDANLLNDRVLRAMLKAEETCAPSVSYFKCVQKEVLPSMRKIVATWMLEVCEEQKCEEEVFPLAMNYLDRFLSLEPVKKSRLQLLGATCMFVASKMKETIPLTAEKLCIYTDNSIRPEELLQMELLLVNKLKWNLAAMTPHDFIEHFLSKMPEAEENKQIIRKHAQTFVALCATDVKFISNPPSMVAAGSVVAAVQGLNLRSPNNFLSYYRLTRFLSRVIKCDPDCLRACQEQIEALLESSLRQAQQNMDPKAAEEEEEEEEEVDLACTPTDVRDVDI
T5 sequence (P06493 whole entry): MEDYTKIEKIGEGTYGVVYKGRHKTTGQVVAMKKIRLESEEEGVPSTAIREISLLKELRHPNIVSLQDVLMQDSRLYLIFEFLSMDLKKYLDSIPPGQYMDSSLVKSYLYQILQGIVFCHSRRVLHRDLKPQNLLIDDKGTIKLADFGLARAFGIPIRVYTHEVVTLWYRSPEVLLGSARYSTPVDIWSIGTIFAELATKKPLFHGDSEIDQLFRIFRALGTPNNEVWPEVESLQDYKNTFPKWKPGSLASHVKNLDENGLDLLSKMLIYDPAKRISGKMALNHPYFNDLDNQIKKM
T5 sequence (P14635 whole entry partner): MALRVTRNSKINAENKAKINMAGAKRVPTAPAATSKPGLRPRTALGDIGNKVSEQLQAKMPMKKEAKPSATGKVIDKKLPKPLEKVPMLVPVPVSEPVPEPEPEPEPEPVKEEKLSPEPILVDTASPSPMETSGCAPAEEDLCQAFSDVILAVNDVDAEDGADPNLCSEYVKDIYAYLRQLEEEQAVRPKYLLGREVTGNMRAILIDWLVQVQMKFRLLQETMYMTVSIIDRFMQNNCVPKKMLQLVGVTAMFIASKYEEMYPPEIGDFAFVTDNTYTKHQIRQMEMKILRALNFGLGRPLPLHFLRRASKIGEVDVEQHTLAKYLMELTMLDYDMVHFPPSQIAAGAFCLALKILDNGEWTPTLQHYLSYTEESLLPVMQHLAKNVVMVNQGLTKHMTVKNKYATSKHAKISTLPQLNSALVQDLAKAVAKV
T3 sequence (O00329 whole entry): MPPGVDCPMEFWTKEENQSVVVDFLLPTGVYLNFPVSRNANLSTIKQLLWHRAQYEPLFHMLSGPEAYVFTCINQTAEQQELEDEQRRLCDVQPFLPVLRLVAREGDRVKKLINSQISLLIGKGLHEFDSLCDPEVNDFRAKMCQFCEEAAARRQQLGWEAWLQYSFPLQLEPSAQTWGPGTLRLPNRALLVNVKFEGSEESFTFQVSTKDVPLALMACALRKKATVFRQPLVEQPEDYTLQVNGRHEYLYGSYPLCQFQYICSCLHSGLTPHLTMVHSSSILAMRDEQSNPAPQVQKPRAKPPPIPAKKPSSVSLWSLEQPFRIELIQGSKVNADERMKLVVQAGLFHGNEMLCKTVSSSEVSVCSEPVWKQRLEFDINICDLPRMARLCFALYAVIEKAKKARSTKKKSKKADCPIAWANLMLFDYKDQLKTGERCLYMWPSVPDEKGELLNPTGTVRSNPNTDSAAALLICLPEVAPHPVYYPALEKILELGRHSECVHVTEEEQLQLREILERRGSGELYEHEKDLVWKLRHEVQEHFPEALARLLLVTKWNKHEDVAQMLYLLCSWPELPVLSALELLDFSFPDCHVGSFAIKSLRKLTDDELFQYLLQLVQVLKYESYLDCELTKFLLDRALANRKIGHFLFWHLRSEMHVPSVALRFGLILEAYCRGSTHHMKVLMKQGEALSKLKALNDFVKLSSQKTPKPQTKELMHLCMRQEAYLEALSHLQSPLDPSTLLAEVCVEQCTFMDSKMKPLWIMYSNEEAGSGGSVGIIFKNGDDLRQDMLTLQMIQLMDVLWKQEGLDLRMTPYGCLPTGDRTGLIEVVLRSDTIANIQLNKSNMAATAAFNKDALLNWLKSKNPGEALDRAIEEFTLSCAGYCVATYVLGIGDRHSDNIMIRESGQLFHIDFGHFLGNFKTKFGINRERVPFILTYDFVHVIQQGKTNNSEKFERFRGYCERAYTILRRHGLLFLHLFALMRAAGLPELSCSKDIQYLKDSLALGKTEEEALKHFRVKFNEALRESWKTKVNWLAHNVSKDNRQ
T3 sequence (P27986 whole entry partner): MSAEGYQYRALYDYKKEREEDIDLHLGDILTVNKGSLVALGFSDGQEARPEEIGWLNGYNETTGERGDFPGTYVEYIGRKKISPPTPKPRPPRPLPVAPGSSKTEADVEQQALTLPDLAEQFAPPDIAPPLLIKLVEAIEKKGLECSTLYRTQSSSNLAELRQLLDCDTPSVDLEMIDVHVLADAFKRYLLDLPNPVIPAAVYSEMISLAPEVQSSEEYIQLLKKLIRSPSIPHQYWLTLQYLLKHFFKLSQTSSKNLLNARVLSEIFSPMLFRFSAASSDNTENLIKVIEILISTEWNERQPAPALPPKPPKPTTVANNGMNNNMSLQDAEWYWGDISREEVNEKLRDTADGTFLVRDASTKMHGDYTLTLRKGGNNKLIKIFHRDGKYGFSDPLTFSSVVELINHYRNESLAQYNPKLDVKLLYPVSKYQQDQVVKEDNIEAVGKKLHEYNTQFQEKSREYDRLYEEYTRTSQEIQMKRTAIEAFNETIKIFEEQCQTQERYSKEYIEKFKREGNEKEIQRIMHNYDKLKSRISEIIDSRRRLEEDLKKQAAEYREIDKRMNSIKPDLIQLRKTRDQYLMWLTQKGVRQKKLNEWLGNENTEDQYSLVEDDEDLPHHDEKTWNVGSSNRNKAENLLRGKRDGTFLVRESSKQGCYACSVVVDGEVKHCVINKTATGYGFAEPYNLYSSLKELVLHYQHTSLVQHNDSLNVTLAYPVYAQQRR
T2 sequence (Q00534 whole entry): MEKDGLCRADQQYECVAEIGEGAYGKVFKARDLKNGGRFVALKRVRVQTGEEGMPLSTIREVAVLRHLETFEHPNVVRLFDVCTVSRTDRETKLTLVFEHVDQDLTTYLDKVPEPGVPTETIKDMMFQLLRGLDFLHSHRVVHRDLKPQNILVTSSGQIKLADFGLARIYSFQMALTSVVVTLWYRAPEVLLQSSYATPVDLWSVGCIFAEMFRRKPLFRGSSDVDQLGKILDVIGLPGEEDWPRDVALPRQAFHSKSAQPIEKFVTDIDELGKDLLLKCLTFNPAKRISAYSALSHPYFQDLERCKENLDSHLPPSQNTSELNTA
T2 sequence (P24385 whole entry partner): as the sequence (P24385 whole entry partner) above

Row | SMILES | IC50 [1] [nM] | IC50 [2] [nM] | IC50 [3] [nM] | IC50 [4] [nM] | IC50 [5] [nM] | IC50 [6] [nM] | IC50 [7] [nM] | IC50 ([7]; read-out: CDK1/B IC50) [nM]
1 | COCCn1cc(Nc2ncc3cc(C#N)c(=O)n(C4CCCC4)c3n2)cn1 [Compound No. 104, 8-cyclopentyl-2-((1-(2-methoxyethyl)-1H-pyrazol-4-yl)amino)-7-oxo-7,8-dihydropyrido [2,3-d] pyrimidine-6-carbonitrile] | > 180 | 56 | 75 | 140 | 2520 | 1040 | – | –
2 | CN(C)CC(=O)N1CCC(n2cc(Nc3ncc4cc(C#N)c(=O)n(C5CCCC5)c4n3)cn2)CC1 [Compound No. 202, 8-cyclopentyl-2-((1-(1-(dimethylglycyl)piperidin-4-yl)-1H-pyrazol-4-yl)amino)-7-oxo-7,8-dihydropyrido[2,3-d]pyrimidine-6-carbonitrile] | 58 | 26 | 39 | 154 | 3760 | 830 | – | –
3 | Cn1ccc(S(=O)(=O)N2CCC(Nc3ncc4cc(C(F)F)c(=O)n([C@H]5C[C@@H]6CC[C@H]5C6)c4n3)CC2)n1 [Compound 395, 8-((1S,2S,4R)-bicyclo[2.2.1]heptan-2-yl)-6-(difluoromethyl)-2-((1-((1-methyl-1H-pyrazol-3-yl)sulfonyl)piperidin-4-yl)amino)pyrido[2,3-d]pyrimidin-7(8H)-one] | 13 | 11 | – | 18 | – | – | 66 | –
4 | N#Cc1cc2cnc(Nc3ccc4c(n3)CCNC4)nc2n(C2CCCC2)c1=O [Compound No. 61, 8-cyclopentyl-7-oxo-2-((5,6,7,8-tetrahydro-1,6-naphthyridin-2-yl)amino)-7,8-dihydropyrido[2,3-d]pyrimidine-6-carbonitrile] | 98 | 54 | – | 2780 | 4480 | 2730 | – | > 5000
5 | CN(C)CCn1cc(Nc2ncc3cc(C#N)c(=O)n(C4CCCC4)c3n2)cn1 [Compound No. 105, 8-cyclopentyl-2-((1-(2-(dimethylamino)ethyl)-1H-pyrazol-4-yl)amino)-7-oxo-7,8-dihydropyrido[2,3-d]pyrimidine-6-carbonitrile] | 69 | 34 | 456 | – | 3820 | 675 | – | > 3400
6 | CC(C)S(=O)(=O)N1CCC(Nc2ncc3cc(C#N)c(=O)n(C4CCCC4)c3n2)CC1 [Compound No. 355, 8-cyclopentyl-2-((1-(isopropylsulfonyl)piperidin-4-yl)amino)-7-oxo-7,8-dihydropyrido[2,3-d]pyrimidine-6-carbonitrile] | 6.5 | 8 | – | 20 | 1520 | 495 | 362 | –
7 | Cn1ccc(S(=O)(=O)N2CCC(Nc3ncc4cc(C(F)F)c(=O)n([C@@H]5C[C@H]6CC[C@@H]5C6)c4n3)CC2)n1 [Compound 396, 8-((1R,2R,4S)-bicyclo[2.2.1]heptan-2-yl)-6-(difluoromethyl)-2-((1-((1-methyl-1H-pyrazol-3-yl)sulfonyl)piperidin-4-yl)amino)pyrido[2,3-d]pyrimidin-7(8H)-one] | 17 | 7 | – | 14 | – | – | 100 | –
8 | CCCCCc1ccc(S(=O)(=O)N2CCC(Nc3ncc4cc(C#N)c(=O)n(C5CCCC5)c4n3)CC2)cc1 [Compound No. 381, 8-cyclopentyl-7-oxo-2-(1-(4-pentylphenylsulfonyl)piperidin-4-ylamino)-7,8-dihydropyrido[2,3-d]pyrimidine-6-carbonitrile] | > 200 | 120 | – | 57 | > 10000 | 743 | – | > 3570
9 | N#Cc1cc2cnc(Nc3ccc4c(c3)CCN(C(=O)CO)C4)nc2n(C2CCCC2)c1=O [Compound No. 70, 8-cyclopentyl-2-((2-(2-hydroxyacetyl)-1,2,3,4-tetrahydroisoquinolin-6-yl)amino)-7-oxo-7,8-dihydropyrido[2,3-d]pyrimidine-6-carbonitrile] | 12 | 6 | – | 27 | 1180 | 818 | – | 354
10 | N#Cc1cc2cnc(NC3CCCC3O)nc2n(C2CCCC2)c1=O (stereo not shown) [Compound No. 349, 8-cyclopentyl-2-((2-hydroxycyclopentyl)amino)-7-oxo-7,8-dihydropyrido[2,3-d]pyrimidine-6-carbonitrile] | 29 | 62 | – | 475 | 5660 | 770 | – | 735
11 | CS(=O)(=O)N1CCC(Nc2ncc3cc(C(F)F)c(=O)n([C@H]4C[C@H]5C[C@H]5C4)c3n2)CC1 [Compound 196, 8-((1R,3R,5S)-bicyclo[3.1.0]hexan-3-yl)-6-(difluoromethyl)-2-((1-(methylsulfonyl)piperidin-4-yl)amino)pyrido[2,3-d]pyrimidin-7(8H)-one] | 2.5 | 4.5 | – | 5 | – | – | 31 | –
12 | CS(=O)(=O)N1CCC(Nc2ncc3cc(C#N)c(=O)n([C@@H]4CCC(F)(F)C4)c3n2)CC1 [Compound No. 385, (R)-8-(3,3-difluorocyclopentyl)-2-(1-(methylsulfonyl)piperidin-4-ylamino)-7-oxo-7,8-dihydropyrido[2,3-d]pyrimidine-6-carbonitrile] | 49 | 65 | – | 96 | > 10000 | 2820 | 2620 | –
13 | N#Cc1cc2cnc(Nc3ccc4c(c3)CN(CCN)CC4)nc2n(C2CCCC2)c1=O [Compound No. 65, 2-((2-(2-aminoethyl)-1,2,3,4-tetrahydroisoquinolin-7-yl)amino)-8-cyclopentyl-7-oxo-7,8-dihydropyrido[2,3-d]pyrimidine-6-carbonitrile] | 17 | 15 | – | 169 | 1990 | 569 | – | 791
14 | CS(=O)(=O)N1CCC(Nc2ncc3cc(C(F)F)c(=O)n(C4CC5CCC4C5)c3n2)CC1 (racemic) [Compound 401, 8-((1S,2S,4R)-bicyclo[2.2.1]heptan-2-yl)-6-(difluoromethyl)-2-((1-(methylsulfonyl)piperidin-4-yl)amino)pyrido[2,3-d]pyrimidin-7(8H)-one] | 4 | 4.5 | – | 19 | – | – | – | 88
15 | N#Cc1cc2cnc(Nc3nc(C4CCNCC4)cs3)nc2n(C2CCCC2)c1=O [Compound No. 327, 8-cyclopentyl-7-oxo-2-((4-(piperidin-4-yl)thiazol-2-yl)amino)-7,8-dihydropyrido [2,3-d] pyrimidine-6-carbonitrile] | 26 | 9 | 5690 | – | 1700 | 650 | – | > 5000
16 | CN1CCC(n2cc(Nc3ncc4cc(C#N)c(=O)n(C5CCCC5)c4n3)cn2)CC1 [Compound No. 325, 8-cyclopentyl-2-((1-(1-methylpiperidin-4-yl)-1H-pyrazol-4-yl)amino)-7-oxo-7,8-dihydropyrido [2,3-d] pyrimidine-6-carbonitrile] | 70 | 36 | 22 | 382 | 2420 | 445 | – | –
